From patent US20240293553A1, “P-SELECTIN INHIBITORS AND USES THEREOF” (Beth Israel Deaconess Medical Center, Inc., priority 2021, published 2024)
“And” between values parts separate entries of the source, which are not always exact repeats. Identical values can stand only once. Like-named read-outs stand apart in the source and are kept apart here. Square brackets hold non-standard residues; d marks the D form. Ends that are not written are not given here. Peptide text beside a SMILES is read from it. * marks the point of attachment. X1 = CC(=O)N[C@H]1[C@H](OCCn2cc(C*)nn2)O[C@H](CO)[C@@H](O[C@@H]2O[C@H](CO)[C@H](O)[C@H](O[C@]3(C(=O)O)C[C@H](O)[C@@H](NC(C)=O)[C@H]([C@H](O)[C@H](O)CO)O3)[C@H]2O)[C@@H]1O[C@@H]1O[C@@H](C)[C@@H](O)[C@@H](O)[C@@H]1O; Phe(4-CH2SO3H) = N[C@@H](Cc1ccc(CS(=O)(=O)O)cc1)C(=O)O

Legend:
human P-selectin [1] = assay: Glycopeptide microarray binding assay, P-selectin; settings: human P-selectin 5 μg/mL; compounds at 50 μM
Protocol: (§1) For a multi-panel experiment on a single slide, the array layout was designed using Piezoarray software according to the dimension of a standard 14-chamber adaptor. The adaptor was applied on the slide to separate a single slide to 14 chambers sealed from each other during the experiment. All glycopeptides and control samples were printed on an NHS-activated glass slide in phosphate buffer (300 mM sodium phosphates, pH 8.5). The average spot volume was within 10% variation (intra-tip) of 0.33 nL. The average spot size was 100 μm. […] These AEAB derivatives and control biotin-NHNH2, all at 50 μM concentration, were printed on the microarray as controls and reference standards. After printing, the slide was placed in a high moisture chamber at 50° C. and incubated for 1 h. The slide was subsequently washed and blocked with 50 mM ethanolamine in 0.1 M Tris buffer (pH 8.0) for 1 h, dried by centrifugation, and stored desiccated at −20° C. prior to use. […] The scanned images were analyzed using ScanArray Express software.
(§2) The binding affinity of G4 towards P-selectin was initially screened using microarray technology. G4 along with 11 additional structural variants and synthetic intermediates, as well as […] glycan standards (sLe^x, NA2, NA2,3, NA2,6, asialobiantennary, asialotetra-saccharide) were printed on an NHS-activated glass slide (FIGS. 7A-7C). The slide was then incubated with a recombinant immunoglobulin (Ig) chimera of P-sel (5 μg mL^−1) or monoclonal antibodies, PL1, specific to the N-terminal PSGL-1 peptide sequence, CHO131, specific to the Core 2 O-glycan terminated with sLe^X, or HECA-452, specific to sLe^x. The array was then washed and incubated with Alexa-488-labelled anti-human IgG antibody (5 μg/mL). […] Of note, the PL1 epitope spans residues 49-62, which includes the key sequence -L-P-E-T-E-P- (84). Thus, modification of the key T residue within the PL1 epitope alters PL1 binding, but not P-selectin binding. Binding of glycopeptide mimics was Ca2^+ dependent and inhibited by EDTA.

[2] = system: HECA-452, a monoclonal antibody specific to sLe^x; assay: Glycopeptide microarray binding assay, HECA-452
Protocol: as §1, §2

[3] = system: PL1, a monoclonal antibody specific to the N-terminal PSGL-1 peptide sequence; assay: Glycopeptide microarray binding assay, PL1
Protocol: as §1
(§3) The binding affinity of G4 towards P-selectin was initially screened using microarray technology. G4 along with 11 additional structural variants and synthetic intermediates, as well as five glycan standards (sLe^x, NA2, NA2,3, NA2,6, asialobiantennary, asialotetra-saccharide) were printed on an NHS-activated glass slide (FIGS. 7A-7C). […]

[4] = system: CHO131, a monoclonal antibody specific to the Core 2 O-glycan terminated sLe^x; assay: Glycopeptide microarray binding assay, CHO131
Protocol: as §1, §3

[5] = molecular target: T1, murine P-selectin-Fc chimera (Mus musculus, UniProt Q01102); assay: Flow cytometry inhibition of P-selectin-Fc chimera binding to murine leukocytes; type: cell-based; settings: P-selectin-Fc chimera 3 μg/mL
T1 construct: purchased R&D Systems
Protocol: Flow cytometry was used to quantify binding inhibition of P-selectin-Fc chimeras to human and murine leukocytes. Heparinized whole mouse blood was collected via cardiac puncture and human blood from healthy adult volunteers was collected in citrate. Leukocytes were isolated by centrifugation at 800 g for 10 min at room temperature, platelets removed by centrifugation at 120 g for 10 min at room temperature, and red blood cells lysed using red blood cell (RBC) lysis buffer (eBiosciences). […] The interaction of P-selectin with human and murine monocytes and neutrophils was analyzed by flow cytometry (CytoFlex LX, Beckman Coulter) and quantified as percent inhibition using FlowJo. Inhibition experiments were conducted in triplicate.
Binding of P-selectin was detected with phycoerythrin (PE)-conjugated anti-Fc antibody and quantified as mean fluorescent intensity and plotted as percent inhibition.

[6] = system: platelet-leukocyte aggregates; assay: Platelet-leukocyte aggregation in human whole blood (PAR1-activating peptide), flow cytometry; type: cell-based; settings: 120 μM
Protocol: (§4) Platelet-leukocyte aggregates were quantified in whole blood using dual-label flow cytometry (CytoFlex LX, Beckman Coulter). […] Platelet-leukocyte aggregates were quantified by two-color flow cytometry by incubating human samples with anti-CD45-APC (BD Biosciences) and anti-CD42a-FITC (BD Biosciences) and mouse samples with anti-CD45-eFluor506 (Invitrogen), anti-CD11b-APC (BD Biosciences), anti-Ly-6G-PE (BD Biosciences), and anti-CD41-FITC (BD Biosciences). […] Inhibition experiments were conducted in triplicate.
(§5) PSGL-1/P-selectin binding are responsible for the generation of platelet-leukocyte aggregates, which leads to the release of neutrophil extracellular traps and other procoagulant factors, as well as the infiltration of leukocytes (86, 87).

[7] = system: platelet-leukocyte aggregates; assay: Platelet-leukocyte aggregation in mouse whole blood (PAR4-activating peptide), flow cytometry; type: cell-based; settings: 120 μM
Protocol: as §4, §5

in vivo = settings: C57BL/6, mouse, iv, 8 umol/kg
Protocol: The supernatant (80 μL) was dried in vacuo, reconstituted in nanopure water (32 μL), and an aliquot (2 μL) was injected for pre-concentration at a flow rate of 5 μL/min using an UltiMate 3000 RSLCnano ultra-high-performance liquid chromatography (UHPLC) system (Dionex) coupled to an Orbitrap Fusion Lumos mass spectrometer (Thermo Fisher Scientific). […] Following in-source fragmentation (ISF), m/z 1121.09 (z=3) was used as the quantifying peptide. Peak areas from the extracted chromatograms were used for quantification. […] Compound half-life was determined using non-compartmental analysis.

P-selectin [8] = molecular target: T2, P-selectin (Homo sapiens, UniProt P16109); settings: literature values; cited from earlier work
T2 sequence (P16109 42-830): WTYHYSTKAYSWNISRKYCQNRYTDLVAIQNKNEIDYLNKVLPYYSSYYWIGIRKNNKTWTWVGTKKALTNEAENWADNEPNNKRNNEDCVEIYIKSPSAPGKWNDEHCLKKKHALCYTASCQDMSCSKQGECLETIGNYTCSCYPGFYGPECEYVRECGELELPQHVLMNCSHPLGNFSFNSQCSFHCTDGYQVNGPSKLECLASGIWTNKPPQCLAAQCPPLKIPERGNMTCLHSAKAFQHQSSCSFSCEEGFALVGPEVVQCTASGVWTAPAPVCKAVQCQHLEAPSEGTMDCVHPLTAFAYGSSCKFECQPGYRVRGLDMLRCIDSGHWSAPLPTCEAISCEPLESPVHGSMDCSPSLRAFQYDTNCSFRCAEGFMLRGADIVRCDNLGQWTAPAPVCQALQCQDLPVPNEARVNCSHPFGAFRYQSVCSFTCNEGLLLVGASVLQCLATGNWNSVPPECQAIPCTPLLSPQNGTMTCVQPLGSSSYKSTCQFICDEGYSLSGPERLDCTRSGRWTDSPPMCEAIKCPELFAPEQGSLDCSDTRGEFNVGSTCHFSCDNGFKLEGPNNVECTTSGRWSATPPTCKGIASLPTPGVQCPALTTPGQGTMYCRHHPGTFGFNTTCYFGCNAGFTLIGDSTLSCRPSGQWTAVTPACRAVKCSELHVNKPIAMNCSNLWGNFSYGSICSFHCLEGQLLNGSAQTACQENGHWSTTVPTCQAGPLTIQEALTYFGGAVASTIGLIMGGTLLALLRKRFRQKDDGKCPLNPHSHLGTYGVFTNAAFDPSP

human P-selectin [9] = assay: Biacore surface plasmon resonance binding assay (biotinylated ligand captured, P-selectin-Ig flowed); settings: human P-selectin-Ig 0.4-100 nM
Protocol: Biotinylated G4 was first captured quantitatively on a streptavidin-coated sensor chip (GE Healthcare). Different amounts of P-selectin-Ig chimera (P-Sel-Ig) were incubated in the wells (0.4-100 nM) and bound P-selectin detected using fluorescently labelled anti-human IgG. PL1 and CHO131 were used to confirm the immobilization step and to compare the relative amount of glycopeptide on the chip. Bound monoclonal antibodies and P-selectin were removed from the sensor chip by injecting 10 mM glycine-HCl, pH 2.0 and 50 mM EDTA, respectively, at 20 μL/min for 30 s. The kinetic parameters were obtained by plotting the curves using a 1:1 binding model provided by the Biacore evaluation software.

P-selectin [10] = molecular target: T2, P-selectin; settings: reported values; cited from earlier work
venous thrombus = assay: Murine model of non-occlusive venous thrombosis (electrolytic injury of the inferior vena cava); type: in vivo, C57BL/6 mice; settings: 48 h after injury; glycopeptide 8 μmol/kg IV, LMWH (enoxaparin) 6 mg/kg SC
Text: Venous side branches were ligated or cauterized, while posterior branches were left patent. A 25-gauge stainless steel needle, attached to a silver-coated copper wire was inserted into the exposed caudal vena cava and positioned against the anterior wall (anode). […] Subsequently, the needle was removed and a cotton swab held in gentle contact with the puncture site to prevent bleeding.

T1 sequence (Q01102 with tags, fused parts or gaps limits assumed): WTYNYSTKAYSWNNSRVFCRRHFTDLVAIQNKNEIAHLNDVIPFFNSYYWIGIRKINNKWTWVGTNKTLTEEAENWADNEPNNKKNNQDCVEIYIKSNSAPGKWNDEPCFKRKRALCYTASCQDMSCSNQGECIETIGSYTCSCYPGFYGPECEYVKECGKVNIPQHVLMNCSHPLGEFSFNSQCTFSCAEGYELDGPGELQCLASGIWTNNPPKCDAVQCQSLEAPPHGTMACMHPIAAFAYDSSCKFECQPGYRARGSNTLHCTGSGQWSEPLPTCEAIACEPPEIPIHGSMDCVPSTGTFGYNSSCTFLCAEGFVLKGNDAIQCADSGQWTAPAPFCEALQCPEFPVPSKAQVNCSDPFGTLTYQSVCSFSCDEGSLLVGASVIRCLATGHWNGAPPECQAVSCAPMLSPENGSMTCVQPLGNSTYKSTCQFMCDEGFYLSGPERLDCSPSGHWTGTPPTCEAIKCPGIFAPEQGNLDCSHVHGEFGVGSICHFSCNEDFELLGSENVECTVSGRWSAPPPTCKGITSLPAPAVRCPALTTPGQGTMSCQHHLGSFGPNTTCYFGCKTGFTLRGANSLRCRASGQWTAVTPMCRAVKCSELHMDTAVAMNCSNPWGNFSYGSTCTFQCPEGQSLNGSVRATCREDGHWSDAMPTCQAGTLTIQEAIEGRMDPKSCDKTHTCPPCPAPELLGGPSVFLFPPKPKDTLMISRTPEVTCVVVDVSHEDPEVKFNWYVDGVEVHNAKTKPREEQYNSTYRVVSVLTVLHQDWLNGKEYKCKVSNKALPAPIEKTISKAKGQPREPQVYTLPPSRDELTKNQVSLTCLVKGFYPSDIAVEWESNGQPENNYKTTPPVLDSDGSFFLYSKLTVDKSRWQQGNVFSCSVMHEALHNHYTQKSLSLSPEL

## CC(=O)N[C@H]1[C@H](OCCn2cc(CO[C@H](C)[C@H](NC(=O)[C@H](CCC(=O)O)NC(=O)[C@@H]3CCCN3C(=O)[C@H](CC(C)C)NC(=O)[C@H](Cc3ccccc3)NC(=O)[C@H](CC(=O)O)NC(=O)[C@H](Cc3ccc(CS(=O)(=O)O)cc3)NC(=O)[C@H](CC(=O)O)NC(=O)[C@H](CC(C)C)NC(=O)[C@H](Cc3ccc(CS(=O)(=O)O)cc3)NC(=O)[C@H](CCC(=O)O)NC(=O)[C@H](Cc3ccc(CS(=O)(=O)O)cc3)NC(=O)[C@H](CCC(=O)O)NC(=O)[C@H](CCCCN)NC(C)=O)C(=O)N[C@@H](CCC(=O)O)C(=O)N3CCC[C@H]3C(=O)N[C@@H](CC(C)C)C(=O)O)nn2)O[C@H](CO)[C@@H](O[C@@H]2O[C@H](CO)[C@H](O)[C@H](O[C@]3(C(=O)O)C[C@H](O)[C@@H](NC(C)=O)[C@H]([C@H](O)[C@H](O)CO)O3)[C@H]2O)[C@@H]1O[C@@H]1O[C@@H](C)[C@@H](O)[C@@H](O)[C@@H]1O [G4, KEF*EF*LDF*DFLPET(Neu5Acα2-3Galβ1-4(Fucal-3)GlcNAc)EPL] (Ac-KE[Phe(4-CH2SO3H)]E[Phe(4-CH2SO3H)]LD[Phe(4-CH2SO3H)]DFLPET(X1)EPL-OH)
Human P-selectin [1]
  Binding to P-selectin on microarray: strongly bound
[2]
  Binding of HECA-452 on microarray: strongly bound
[3]
  Binding of PL1 on microarray: neither PL1 or CHO131 bound
[4]
  Binding of CHO131 on microarray: neither PL1 or CHO131 bound
[5]; murine monocytes, read-out: IC50, P-selectin binding to murine monocytes
  IC50: 10 µM
[5]; murine neutrophils, read-out: IC50, P-selectin binding to murine neutrophils
  IC50: 10 µM
[6]
  Inhibition of human platelet-monocyte aggregates: 33%
  Inhibition of human platelet-neutrophil aggregates: 28%
[7]
  Inhibition of murine platelet-monocyte aggregates: 41%
  Inhibition of murine platelet-neutrophil aggregates: 38%
In vivo
  half-life: 13.2 ± 5.04 min

## C[C@@H]1O[C@@H](O[C@@H]2[C@@H](NC(=O)c3cc(=O)[nH]c(=O)[nH]3)C[C@@H](C(=O)NCCNC(=O)COCCOCC(=O)Nc3cc(S(=O)(=O)O)cc4cc(S(=O)(=O)O)cc(S(=O)(=O)O)c34)C[C@H]2O[C@@H]2O[C@H](CO)[C@H](O)[C@H](O[C@@H](CC3CCCCC3)C(=O)O)[C@H]2OC(=O)c2ccccc2)[C@@H](O)[C@H](O)[C@@H]1O [GMI-1070]
P-selectin [8]
  IC50: 423 µM

## O=C(O)c1c(O)c(C2(c3ccc(Cl)cc3)CC2)nc2c(C(F)(F)F)cccc12 [PSI-421, 2-[1-(4-chlorophenyl)cyclopropyl]-3-hydroxy-8-(trifluoromethyl)quinoline-4-carboxylic acid]
P-selectin [8]
  IC50: 225 µM

## EY*EY*LDY*DFLPET(Neu5Acα2-3Galβ1-4(Fucal-3)GlcNAcβ1-6Galβ1-3GalNAcα)EPPEM (EYEYLDYDFLPET(Neu5Acα2‑3Galβ1‑4(Fucal-3)GlcNAcβ1‑6Galβ1‑3GalNAcα)EPPEM; not fully specified (residues 2, 4, 7)) [GSP-6]
Human P-selectin [1]
  Binding to P-selectin on microarray: strongly bound
[2]
  Binding of HECA-452 on microarray: strongly bound

## KEF*EF*LDF*DFLPET(Neu5Acα2-3Galβ1-4(Fucal-3)GlcNAcβ1-6(Galβ1-3)GalNAcα)EPL (KEFEFLDFDFLPET(Neu5Acα2‑3Galβ1‑4(Fucal-3)GlcNAcβ1‑6(Galβ1-3)GalNAcα)EPL; not fully specified (residues 3, 5, 8)) [GSnP-6, previously reported glycosulfonopeptide P-selectin antagonist, reference compound]
Human P-selectin [9]
  Kd: 0.027 µM
Human P-selectin [1]
  Binding to P-selectin on microarray: strongly bound
[2]
  Binding of HECA-452 on microarray: strongly bound
P-selectin [10]
  Kd: 0.022 µM and 0.027 µM

## enoxaparin
Venous thrombus
  venous thrombus formation / thrombus weight versus saline vehicle: significant reduction
